Measurements: US10150770B2, “Crystal form of bisulfate of JAK inhibitor and preparation method therefor” (Jiangsu Hengrui Medicine Co., Ltd., priority 2014, dated 2018)

Experiment: Stability test of solid forms spread flat in the air (lighting, heating, high humidity), purity detected by HPLC
Assay type: physicochemical
Conditions: for purity as detected by HPLC, 40° C.: heating 40° C.; for purity as detected by HPLC, 60° C.: heating 60° C.; for purity as detected by HPLC, RH 75%: high humidity RH 75%; for purity as detected by HPLC, RH 90%: high humidity RH 90%; for purity as detected by HPLC, Lighting: lighting 4500 Lux
Method: The amorphous sample prepared in Example 1 and crystal form I prepared in Example 3 were spread flat in the air to test their stability under the conditions of lighting (4500 Lux), heating (40° C., 60° C.), and high humidity (RH 75%, RH 90%).

| Structure (SMILES) | purity as detected by HPLC, 40° C. (day 0) | purity as detected by HPLC, 40° C. (day 5) | purity as detected by HPLC, 40° C. (day 10) | purity as detected by HPLC, 60° C. (day 0) | purity as detected by HPLC, 60° C. (day 5) | purity as detected by HPLC, 60° C. (day 10) | effect of high humidity on stability | purity as detected by HPLC, RH 75% (day 0) | purity as detected by HPLC, RH 75% (day 5) | purity as detected by HPLC, RH 75% (day 10) | purity as detected by HPLC, RH 90% (day 0) | purity as detected by HPLC, RH 90% (day 5) | purity as detected by HPLC, RH 90% (day 10) | purity as detected by HPLC, Lighting (day 0) | purity as detected by HPLC, Lighting (day 5) | purity as detected by HPLC, Lighting (day 10) | stability under the conditions of lighting and high temperature (lighting and high temperature, compared with the amorphous sample) |
| --- | --- | --- | --- | --- | --- | --- | --- | --- | --- | --- | --- | --- | --- | --- | --- | --- | --- |
| COc1nsc(NC(=O)N2C[C@H]3C[C@H](N(C)c4ncnc5[nH]ccc45)C[C@H]3C2)n1.O=S(=O)(O)O [Amorphous Form, (3aR,5s,6aS)—N-(3-methoxyl-1,2,4-thiadiazole-5-yl)-5-(methyl(7H-pyrrolo[2,3-d]pyrimidine-4-yl)amino)hexahydrocyclopenta[c]pyrrole-2(1H)-formamide bisulfate] | 98.33% | 97.65% | 96.61% | 98.33% | 94.53% | 92.12% | does not have much effect | 98.33% | 98.32% | 98.16% | 98.33% | 99.14% | 99.12% | 98.33% | 98.04% | 97.51% |  |
| COc1nsc(NC(=O)N2C[C@H]3C[C@H](N(C)c4ncnc5[nH]ccc45)C[C@H]3C2)n1.O=S(=O)(O)O [Crystal form I, (3aR,5s,6aS)—N-(3-methoxyl-1,2,4-thiadiazole-5-yl)-5-(methyl(7H-pyrrolo[2,3-d]pyrimidine-4-yl)amino)hexahydrocyclopenta[c]pyrrole-2(1H)-formamide bisulfate] | 99.45% | 99.42% | 99.42% | 99.45% | 99.36% | 99.35% | does not have much effect | 99.45% | 99.42% | 99.40% | 99.45% | 99.42% | 99.39% | 99.45% | 99.40% | 99.39% | significantly better than that of the amorphous sample |
